The subject of assay [1] is SKBR3 (PI3Kα-Wild Type) cell line. Nature of the assay: HTRF phospho-AKT(S473) cell assay in SKBR3 cells. Type of assay: cell-based, human. The following applies: Homo sapiens, SK-BR-3, 2 hours compound incubation, PDGF-BB stimulated. An outline of the steps:
(§1)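 HTRF read-out of phospho-AKT(S473) in lysates gave IC50 values after 2 h compound exposure at 37° C. Dose series was 12 points at 1:3, topping at 5 μM for T47D and 10 μM for SKBR3. Only SKBR3 received 70 ng/ml PDGF-BB during the last 15 minutes.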

The subject of assay [2] is T47D (PI3Kα-H1047R) cell line. Nature of the assay: HTRF phospho-AKT(S473) cell assay in T47D cells. Type of assay: cell-based, human. The following applies: Homo sapiens, 2 hours compound incubation. An outline of the steps:
as §1

[3] abbreviates: HTRF phospho-AKT(S473), SKBR3 (PI3Kα-Wild Type) cells.
Where [4] appears, read: HTRF phospho-AKT(S473), T47D (PI3Kα-H1047R) cells.
[5] abbreviates: SKBR3 (PI3Kα-Wild Type) cells, HTRF phospho-AKT(S473).
Where [6] appears, read: T47D (PI3Kα-H1047R) cells, HTRF phospho-AKT(S473).

Where only a bound is given, the exact number is not on record here.

For `Cc1cc([C@@H](C)Nc2ccc(Cl)nc2C(=O)NS(C)(=O)=O)c2nc(N3CCC(c4nc(C(F)(F)F)n(C)n4)CC3)n(C)c(=O)c2c1` [Compound 458, (R)-6-chloro-3-((1-(3,6-dimethyl-2-(4-(1-methyl-5-(trifluoromethyl)-1H-1,2,4-triazol-3-yl)piperidin-1-yl)-4-oxo-3,4-dihydroquinazolin-8-yl)ethyl)amino)-N-(methylsulfonyl) picolinamide], the concentration for half-maximal inhibition (IC50) is not below 5 µM in assay [1] (setting [3]) and 0.25 to 0.5 µM in assay [2] (setting [4]).
The like results for `Cc1cc([C@@H](C)Nc2ccc(Cl)nc2C(=O)NS(C)(=O)=O)c2nc(N3CCC(c4ccc(F)cn4)C3)n(C)c(=O)c2c1` (stereo partly drawn) [Compound 679, 6-chloro-3-(((1R)-1-(2-(3-(5-fluoropyridin-2-yl)pyrrolidin-1-yl)-3,6-dimethyl-4-oxo-3,4-dihydroquinazolin-8-yl)ethyl)amino)-N-(methylsulfonyl) picolinamide] were, in that order, 1 to 5 µM and 0.25 to 0.5 µM.
As for `Cc1cc([C@@H](C)Nc2ccc(Cl)nc2C(=O)NS(C)(=O)=O)c2nc(-c3ccc4nn(-c5ncccn5)cc4c3)n(C)c(=O)c2c1` [Compound 850, (R)-6-chloro-3-((1-(3,6-dimethyl-4-oxo-2-(2-(pyrimidin-2-yl)-2H-indazol-5-yl)-3,4-dihydroquinazolin-8-yl)ethyl)amino)-N-(methylsulfonyl) picolinamide], the IC50 was 1 to 5 µM in assay [1] (SKBR3 (PI3Kα-Wild Type) cell line, phospho-AKT(S473) HTRF) and less than 0.25 µM in assay [2] (T47D (PI3Kα-H1047R) cell line, phospho-AKT(S473) HTRF).
Take `Cc1cc([C@@H](C)Nc2ccc(Cl)nc2C(=O)NS(C)(=O)=O)c2nc(N3C[C@@H]4[C@H](C3)[C@H]4c3cn(C)nc3C)n(C)c(=O)c2c1` [Compound 430, 6-chloro-3-(((R)-1-(2-((1R,5S,6S)-6-(1,3-dimethyl-1H-pyrazol-4-yl)-3-azabicyclo[3.1.0]hexan-3-yl)-3,6-dimethyl-4-oxo-3,4-dihydroquinazolin-8-yl)ethyl)amino)-N-(methylsulfonyl) picolinamide]: the IC50 is 1 to 5 µM in assay [1] (setting [5]) and less than 0.25 µM in assay [2] (setting [6]).
Consider `Cc1cc([C@@H](C)Nc2ccc(Cl)nc2C(=O)NS(C)(=O)=O)c2nc(N3C[C@@H]4[C@H](C3)[C@H]4c3cc(C)nn3C3CC3)n(C)c(=O)c2c1` [Compound 568, 6-chloro-3-(((R)-1-(2-((1R,5S,6R)-6-(1-cyclopropyl-3-methyl-1H-pyrazol-5-yl)-3-azabicyclo[3.1.0]hexan-3-yl)-3,6-dimethyl-4-oxo-3,4-dihydroquinazolin-8-yl)ethyl)amino)-N-(methylsulfonyl) picolinamide], for which the IC50 in assay [1] (setting [3]) is 1 to 5 µM; in assay [2] (setting [4]), 0.25 to 0.5 µM.
`Cc1cc([C@@H](C)Nc2ccc(Cl)nc2C(=O)NS(C)(=O)=O)c2nc(N3[C@@H]4CC[C@H]3C[C@H](c3ccn(C)n3)C4)n(C)c(=O)c2c1` [Compound 342, 6-chloro-3-(((R)-1-(3,6-dimethyl-2-((1R,3S,5S)-3-(1-methyl-1H-pyrazol-3-yl)-8-azabicyclo[3.2.1]octan-8-yl)-4-oxo-3,4-dihydroquinazolin-8-yl)ethyl)amino)-N-(methylsulfonyl) picolinamide]: the IC50 in assay [1] (setting [5]) is 1 to 5 µM; in assay [2] (setting [6]), less than 0.25 µM.
Regarding `C[C@@H](Nc1ccc(Cl)nc1C(=O)NS(C)(=O)=O)c1cc(C(F)(F)F)cc2c(=O)n(C)c(N3CCC(c4nn(C)cc4F)CC3)nc12` [Compound 453, (R)-6-chloro-3-((1-(2-(4-(4-fluoro-1-methyl-1H-pyrazol-3-yl)piperidin-1-yl)-3-methyl-4-oxo-6-(trifluoromethyl)-3,4-dihydroquinazolin-8-yl)ethyl)amino)-N-(methylsulfonyl) picolinamide], the IC50 in assay [1] (setting [3]) is not below 5 µM; in assay [2] (setting [4]), less than 0.25 µM.
The like results for `COc1ccc(N2CCN(c3nc4c([C@@H](C)Nc5ccc(Cl)nc5C(=O)NS(C)(=O)=O)cc(C)cc4c(=O)n3C)CC2)cn1` [Compound 635, (R)-6-chloro-3-((1-(2-(4-(6-methoxypyridin-3-yl)piperazin-1-yl)-3,6-dimethyl-4-oxo-3,4-dihydroquinazolin-8-yl)ethyl)amino)-N-(methylsulfonyl) picolinamide] were, in that order, 1 to 5 µM and 0.25 to 0.5 µM.
Take `Cc1cc([C@@H](C)Nc2ccc(Cl)nc2C(=O)NS(C)(=O)=O)c2nc(N3CCC(c4ccn(C)n4)CC3)n(C3CC3)c(=O)c2c1` [Compound 372, (R)-6-chloro-3-((1-(3-cyclopropyl-6-methyl-2-(4-(1-methyl-1H-pyrazol-3-yl)piperidin-1-yl)-4-oxo-3,4-dihydroquinazolin-8-yl)ethyl)amino)-N-(methylsulfonyl) picolinamide]: the IC50 in assay [1] (setting [5]) was 1 to 5 µM; in assay [2] (setting [6]) it was less than 0.25 µM.
As to `Cc1cc([C@@H](C)Nc2ccc(Cl)nc2C(=O)NS(C)(=O)=O)c2nc(N3C[C@@H]4[C@H](C3)[C@H]4c3ncn(C)n3)n(C)c(=O)c2c1` [Compound 507, 6-chloro-3-(((R)-1-(3,6-dimethyl-2-((1R,5S,6R)-6-(1-methyl-1H-1,2,4-triazol-3-yl)-3-azabicyclo[3.1.0]hexan-3-yl)-4-oxo-3,4-dihydroquinazolin-8-yl)ethyl)amino)-N-(methylsulfonyl) picolinamide], the IC50 in assay [1] (setting [3]) was in the range of 1 to 5 µM; in assay [2] (setting [4]), 0.25 to 0.5 µM.
Turning to `Cc1cc([C@@H](C)Nc2ccc(Cl)nc2C(=O)NS(C)(=O)=O)c2nc(N3CCN(c4ncccc4F)CC3)n(C)c(=O)c2c1` [Compound 662, (R)-6-chloro-3-((1-(2-(4-(3-fluoropyridin-2-yl)piperazin-1-yl)-3,6-dimethyl-4-oxo-3,4-dihydroquinazolin-8-yl)ethyl)amino)-N-(methylsulfonyl) picolinamide], the IC50 in assay [1] (setting [3]) is not below 5 µM; in assay [2] (setting [4]) it was 0.25 to 0.5 µM.
Consider `Cc1cc([C@@H](C)Nc2ccc(Cl)nc2C(=O)NS(C)(=O)=O)c2nc(N3CCC(c4nccnc4C)CC3)n(C)c(=O)c2c1` [Compound 438, (R)-6-chloro-3-((1-(3,6-dimethyl-2-(4-(3-methylpyrazin-2-yl)piperidin-1-yl)-4-oxo-3,4-dihydroquinazolin-8-yl)ethyl)amino)-N-(methylsulfonyl) picolinamide], for which the figures for the half-inhibitory concentration (IC50) in assay [1] (setting [5]) and in assay [2] (setting [6]) were not below 5 µM and 0.25 to 0.5 µM, respectively.
The corresponding values for `Cc1cc([C@@H](C)Nc2ccc(Cl)nc2C(=O)NS(C)(=O)=O)c2nc(N3CCC(c4ccn(C5CC5)n4)CC3)n(C)c(=O)c2c1` [Compound 267, (R)-6-chloro-3-((1-(2-(4-(1-cyclopropyl-1H-pyrazol-3-yl)piperidin-1-yl)-3,6-dimethyl-4-oxo-3,4-dihydroquinazolin-8-yl)ethyl)amino)-N-(methylsulfonyl) picolinamide] are 1 to 5 µM and less than 0.25 µM.
The like results for `Cc1cc([C@@H](C)Nc2ccc(Cl)nc2C(=O)NS(C)(=O)=O)c2nc(N3Cc4cn(-c5cccnc5C)nc4C3)n(C)c(=O)c2c1` [Compound 246, (R)-6-chloro-3-((1-(3,6-dimethyl-2-(2-(2-methylpyridin-3-yl)-2,6-dihydropyrrolo[3,4-c]pyrazol-5(4H)-yl)-4-oxo-3,4-dihydroquinazolin-8-yl)ethyl)amino)-N-(methylsulfonyl) picolinamide] were, in that order, 1 to 5 µM and less than 0.25 µM.

Values taken from patent US12281122B1, “PI3K inhibitors” (Cogent Biosciences, Inc., priority 2023, dated 2025).
